In one series the test system is MS. The following applies: daily calcitriol treatments, cited from earlier work.
In the next series the test system is splenocytes. The series can be described thus: Splenocyte staining and FACS analysis after pulse dose. In kind it is in vivo, mouse. How it is done:
For flow cytometric analysis, splenocytes were dissociated into ice-cold Hank's balanced salt solution with HEPES buffer, and RBC were depleted. Duplicate samples (10^6 cells/sample) were stained (30-45 min on ice) with optimal amounts of the mAb conjugates in staining buffer (PBS pH 7.3 with 5% heat-inactivated FBS and 0.1% NaN3). Reference samples stained with single-color mAb served as controls to select fluorescence gates and flow cytometer compensation. The fluorescent mAb conjugates used for this analysis were FITC-labeled mAb to CD4 (clone L3T4) and APC-labeled mAb to CD11b (clone Macla) from Southern Biotechnology, and PE-labeled mAb to CD8 (clone alpha) and biotin-labeled mAb to CD45R (B220) from Invitrogen. PerCP-Cy5.5 was from BD/Pharmingan. Stained samples were analyzed on a FACScalibur™ using CELLQuest™ software (BD Biosciences, Franklin Lakes, N.J.).

A further series deals with EAE. The settings on record: mouse, in vivo; cited from earlier work.
A short description of series [1]: Spinal cord 1,25-(OH)2D3 extraction and radioimmunoassay. The series is classed as in vivo, mouse. The settings on record: 200 ng 1,25-(OH)2D3 pulse dose plus vitamin D3 supplementation; end of the study. As for the experimental part: The vitamin D3 and 1,25-(OH)2D3 were obtained from Sigma Chemical Co. The vitamin D3 was dissolved in safflower oil and stored in the dark at 5° C. The 1,25-(OH)2D3 was dissolved in 100% ethanol (1 mg/mL) and stored in the dark under nitrogen gas at −20° C. The concentration of 1,25-(OH)2D3 was determined by spectral analysis. Animals with stage 2.3±0.3 were randomized into treatment groups. The details of the treatments are given in the figure legends and table footnotes. The synthetic diet used in some experiments was formulated to contain all essential nutrients except vitamin D3 and was prepared exactly as we described (Spach and Hayes, 2005, J. Immunol. 175:4119-4126). For experiments using supplementary vitamin D3, the placebo group was fed the synthetic diet ad libidum without added vitamin D3, whereas the vitamin D3-supplemented group was fed the synthetic diet ad libidum with vitamin D3 added in an amount to provide 1 μg/d, calculated based on a daily measured consumption of 4.0 g dry weight of diet per mouse. Fresh synthetic diet was provided three times per week. At several times during the study, mice were weighed and blood samples were obtained from the tail vein. At the conclusion of the study, the mice were euthanized, a blood sample was obtained, perfusion was done, and the spinal cords and optic nerves were removed. […]

Where [2] appears, read: splenocytes 14 days after a 175 ng pulse dose, no significant differences from normal control mice.

Entries after “also recorded” stand apart in the source; their conditions may differ.

Take `C=C1/C(=C\C=C2/CCC[C@]3(C)[C@@H]([C@H](C)CCCC(C)(C)O)CC[C@@H]23)C[C@@H](O)C[C@@H]1O` [1,25-(OH)2D3, 1,25-dihydroxy vitamin D3]: in the series on MS, the MS progression entry is “completely inhibited” and the “patients who withdrew from the trial with symptomatic hypercalcemia” value was 2 of the 15. The “MS relapse rate (average)” value with MS (decreased from 1.0/yr) is 0.2 /yr. Further, the “numbers of splenocytes recovered” value in the series with splenocytes (14 days after a 175 ng pulse dose, no significant differences from normal control mice) is given as 43±9 million cells. Besides, the “depletion of splenic lymphocytes and monocytes / immunodeficient state” value with splenocytes (B10.PL mice with EAE, 175 ng pulse dose, two weeks post treatment) was “did deplete; also recorded: did not result in an immunodeficient state”. In the series on splenocytes (setting [2]), the “proportion of B220+ B lymphocytes” value is recorded as 63±3%, the “proportion of CD4+ T lymphocytes” value came out at 18±1%, the “proportion of CD8+ T lymphocytes” value was 11±1% and the “proportion of CD11b+ monocytes” value is given as 18±2%. In the series on EAE, the EAE disease induction result is recorded as “strongly inhibited”, the EAE progression result was “prevented progression” and the “established EAE disease” value is “reversed established disease”. Besides, the “1,25-(OH)3D3 in the spinal cord” value in series [1] was 18.8 ± 6.6 pmol/mL.

These data come from patent US20090221538A1, “METHODS OF TREATING MULTIPLE SCLEROSIS BY ADMINISTERING PULSE DOSE CALCITRIOL” (priority 2008, published 2009).
